According to patent publication US12702715B2, “Targeted RNA degradation allows precision repurposing of protein-targeted small molecule medicines to RNA” (University of Florida Research Foundation, Incorporated, priority 2020, dated 2026):

Legend:
FLT3 = molecular target: T1, FLT3 (Homo sapiens, UniProt P36888); assay: Cellular Chem-CLIP/C-Chem-CLIP to study occupancy of an RTK; format: cell-based
T1 construct: endogenous in cells; host or cells: MDA-MB-231
T1 sequence (P36888 27-993): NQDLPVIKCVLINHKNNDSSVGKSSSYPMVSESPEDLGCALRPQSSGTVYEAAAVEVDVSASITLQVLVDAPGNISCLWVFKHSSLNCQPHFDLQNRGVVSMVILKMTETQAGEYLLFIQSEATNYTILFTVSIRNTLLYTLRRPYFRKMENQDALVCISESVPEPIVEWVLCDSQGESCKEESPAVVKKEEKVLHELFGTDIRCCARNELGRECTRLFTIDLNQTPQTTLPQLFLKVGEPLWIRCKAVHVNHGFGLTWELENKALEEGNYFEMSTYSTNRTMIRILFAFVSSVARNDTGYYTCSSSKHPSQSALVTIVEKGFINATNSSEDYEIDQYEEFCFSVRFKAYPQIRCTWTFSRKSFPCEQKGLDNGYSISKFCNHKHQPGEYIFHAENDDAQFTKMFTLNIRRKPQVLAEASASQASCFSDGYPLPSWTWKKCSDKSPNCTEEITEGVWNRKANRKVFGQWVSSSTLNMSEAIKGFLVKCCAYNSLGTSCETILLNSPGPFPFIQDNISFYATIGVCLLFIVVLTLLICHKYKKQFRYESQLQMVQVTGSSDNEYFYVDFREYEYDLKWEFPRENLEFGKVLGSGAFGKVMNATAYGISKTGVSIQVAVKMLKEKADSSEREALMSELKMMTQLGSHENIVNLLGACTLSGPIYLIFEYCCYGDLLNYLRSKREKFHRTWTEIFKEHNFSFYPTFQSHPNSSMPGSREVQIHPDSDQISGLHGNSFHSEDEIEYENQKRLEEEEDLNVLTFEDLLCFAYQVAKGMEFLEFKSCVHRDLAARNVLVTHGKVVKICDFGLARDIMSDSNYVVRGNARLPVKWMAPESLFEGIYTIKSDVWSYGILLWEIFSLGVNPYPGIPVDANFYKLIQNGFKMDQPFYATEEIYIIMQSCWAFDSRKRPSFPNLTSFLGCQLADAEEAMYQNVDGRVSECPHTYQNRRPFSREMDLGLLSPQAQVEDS
Experimental: Cellular Chem-CLIP/C-Chem-CLIP to Study Occupancy of an RTK. Compound treatment and isolation of cells was completed as described for cellular occupancy studies of pre-miR-21. Total protein was extracted and concentration determined as described in the “Western Blotting” section. Approximately 1 mg of total protein was used for following pull-down experiments, using a protocol adapted from a previously published method 8. Protein cross-linked to the probe were clicked to disulfide biotin azide as described above except the amount of each reagents was doubled (20 μL/sample). Then, to the mixture was added ice-cold, 4:1 mixture of methanol/chloroform (2.5 mL) followed by 1 mL of ice-cold 1×DPBS. The mixture was centrifuged at 5000×g for 10 min at 4° C. to fractionate a protein interphase between organic and aqueous layers. […] The washed protein mixture was centrifuged at 5000×g for 10 min at 4° C. to pellet the protein. The pellet was dissolved in H2O, and to this solution was added 20 μLL streptavidin beads for 30 min at room temperature. The solution was removed, and the beads were washed once with 0.2% SDS in 1×DPBS, twice with detergent-free 1×DPBS and twice with nanopure water. After these washing steps, protein was cleaved as described above. The supernatant was collected, and protein concentration was determined with Pierce Micro BCA Protein Assay kit. […] Sample preparation was completed as described above for cellular Chem-CLIP studies. Western blotting was performed on total protein (10 μg) before or after pull-down, indicated as “Input” or “Output”, as described in Western Blotting.

pre-miR-21 WT RNA = assay: In vitro Chem-CLIP and C-Chem-CLIP, pre-miR-21 WT; format: binding, human
Experimental: In Vitro Chemical Cross-linking and Isolation by Pull Down (Chem-CLIP) and Competitive Chem-CLIP (C-Chem-CLIP). Growth medium [RMPI 1640 medium with L-glutamine & 25 mM HEPES (Corning)] was inactivated by heating at 95° C. to for 15 min and slowly cooling to room temperature at benchtop. Pre-miR-21 labeled with ^32P at the 5′-end (~10,000 counts) was folded in growth medium by heating at 95° C. for 1 min and slowly cooling to room temperature. To the samples was added Chem-CLIP probe 4 (1, 5, 20 or 100 μM) or negative control probe 5 (1, 5, 20 or 100 μM), and the mixtures were incubated at 37° C. for 1 h. The samples were then cross-linked by irradiation with 365 nm light for 10 min. The Chem-CLIP probe 4 or control probe 5, whether or not cross-linked to the RNA, was then clicked to disulfide biotin azide (10 mM in DMSO; 10 μL per sample; 1168-10, Click Chemistry Tools) by incubating in a solution containing 1×HEPES buffer (25 mM, pH 7), sodium ascorbate (10 μL/sample, 250 mM in H2O), CuSO4 (10 μL/sample, 50 mM in H2O), THPTA (10 μL/sample, 50 mM in H2O) for 2 h at 37° C. […] The radioactive signal from bound RNAs (on the beads) and unbound RNAs (from the wash steps) were measured by using a Beckman Coulter LS6500 Liquid Scintillation Counter. Enrichment of pre-miR-21 was calculated as previously described^6. […]

Question: For `C#CCCC1(CCC(=O)NCCN2CCN(c3ccc4[nH]c(-c5c(N)c6c(F)cccc6[nH]c5=O)nc4c3)CC2)N=N1` [Compound 4], which “enrichment of FLT3 by probe” value (FLT3; MDA-MB-231) is on record?
Answer: enriched

Question: And the “enrichment of 32P-labeled pre-miR-21 WT” value (pre-miR-21 WT RNA; 1, 5, 20 or 100 μM)?
Answer: dose-dependently enriched

Question: Which “fold decrease / difference in cellular protein occupancy versus 1” value (FLT3) does the source give for `CCOC(=O)C1=C(Nc2ccccc2)S/C(=C\c2ccc(OCCOCCOCCOCCNC(=O)NCCN3CCN(c4ccc5[nH]c(-c6c(N)c7c(F)cccc7[nH]c6=O)nc5c4)CC3)c(O)c2)C1=O` [Compound 2, Ribotac-Dovitinib] here?
Answer: 100 fold

Question: What about the “competition of FLT3 enrichment by probe 4” value (FLT3; 0.01-10 μM pre-treatment) of the same compound?
Answer: competed off

Question: And the IC50 (FLT3; C-Chem-CLIP, MDA-MB-231, read-out: IC50 for inhibition of the Chem-CLIP probe binding to FLT3)?
Answer: 10 µM

Question: And the “concentration competing off probe 4 from FLT3 to the same extent” value (FLT3; probe 4 1 μM)?
Answer: 10 µM

Question: For `CN1CCN(c2ccc3nc(-c4c(N)c5c(F)cccc5[nH]c4=O)[nH]c3c2)CC1` [Compound 1, Dovitinib, reference compound], which “competition of enrichment of pre-miR-21 by 4” value (pre-miR-21 WT RNA; in vitro C-Chem-CLIP) is on record?
Answer: competed off
